Read-outs that look alike come from different tables or passages of the source. Ends that are not written are not given here. A value given as a limit tells only on which side of the number the result lay.

One experiment deals with T1, μ-calpain (Homo sapiens, UniProt P07384).
T1 construct: purchased Nakalai Tesque
T1 sequence (P07384 1-714): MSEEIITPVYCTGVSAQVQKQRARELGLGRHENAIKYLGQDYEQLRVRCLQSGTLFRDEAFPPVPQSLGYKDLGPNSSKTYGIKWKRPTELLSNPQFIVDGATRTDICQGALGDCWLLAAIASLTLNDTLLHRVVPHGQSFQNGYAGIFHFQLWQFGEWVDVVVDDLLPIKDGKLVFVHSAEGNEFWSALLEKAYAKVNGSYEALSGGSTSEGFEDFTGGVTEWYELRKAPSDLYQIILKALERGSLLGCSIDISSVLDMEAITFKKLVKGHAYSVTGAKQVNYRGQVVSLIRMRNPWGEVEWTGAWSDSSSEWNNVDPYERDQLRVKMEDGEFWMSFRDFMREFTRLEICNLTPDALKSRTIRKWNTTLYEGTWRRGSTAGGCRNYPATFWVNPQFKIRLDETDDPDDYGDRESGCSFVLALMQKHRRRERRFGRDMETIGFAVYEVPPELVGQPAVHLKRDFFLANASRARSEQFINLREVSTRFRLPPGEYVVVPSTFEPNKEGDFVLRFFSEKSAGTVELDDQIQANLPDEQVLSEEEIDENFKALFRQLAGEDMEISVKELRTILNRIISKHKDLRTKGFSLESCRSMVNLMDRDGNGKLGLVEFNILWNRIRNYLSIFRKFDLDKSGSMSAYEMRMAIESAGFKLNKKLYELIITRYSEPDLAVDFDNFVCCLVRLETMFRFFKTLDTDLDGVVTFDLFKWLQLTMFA
T1 sequence (P04632 1-268 partner): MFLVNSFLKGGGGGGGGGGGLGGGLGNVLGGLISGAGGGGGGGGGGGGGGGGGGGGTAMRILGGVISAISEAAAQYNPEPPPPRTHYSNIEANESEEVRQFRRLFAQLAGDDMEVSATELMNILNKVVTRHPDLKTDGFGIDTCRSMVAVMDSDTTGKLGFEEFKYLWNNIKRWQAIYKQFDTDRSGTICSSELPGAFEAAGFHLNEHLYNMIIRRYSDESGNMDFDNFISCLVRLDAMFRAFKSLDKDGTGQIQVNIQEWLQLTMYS
In words: μ-Calpain-inhibitory activity (casein substrate). Type of experiment: biochemical. As to conditions: 60 minutes at 30° C., pH 7.4, 4 mM calcium chloride. On the procedure:
Thus, to a solution containing 0.5 mg/ml casein, 50 mM Tris-HCl (pH 7.4), 20 mM dithiothreitol, and 4 mM calcium chloride was added 2.5 μl of a dimethyl sulfoxide solution containing a varying concentration of the test drug as well as 0.03 unit of μcalpain to initiate the reaction. The final liquid volume was 250 μl. After 60 minutes of reaction at 30° C., 100 μl of the reaction mixture was transferred to another vessel, to which 50 μl of purified water and 100 μl of 50% Coumassie brilliant blue solution were added. […] As a control, 2.5 μl of dimethyl sulfoxide not containing the test drug was added and the mixture was treated in the same manner as above. […] Similarly, the value found by adding 0.2 mM EDTA in lieu of 4 mM aqueous calcium chloride solution was used as the blank value. […] [formula]

For another experiment, the target named is T2, cathepsin L (Homo sapiens, UniProt P07711).
T2 construct: purchased Cosmo Bio
In words: Assay of cathepsin L-inhibitory activity (Z-Phe-Arg-MCA). The format is biochemical. As to conditions: 20 minutes at 30° C., pH 5.5. As to the method: The activity of cathepsin L (Cosmo Bio), a cysteine protease, was assayed by the method described in the literature [Methods in Enzymology, 80, 535-561, 1981]. Thus, to a solution containing 85 mM acetate buffer (pH 5.5), 2 mM dithiothreitol, 1 mM EDTA, 2 μg cathepsin L, and a varying concentration of the test compound was added 50 μl of 20 μM carbobenzoxy-L-phenylalanyl-L-arginine-4-methylcoumaryl-7-amide (Z-Phe-Arg-MCA) to initiate the reaction at the final liquid volume of 200 μl. After 20 minutes of reaction at 30° C., 20 μl of 1 M Tris-HCl (pH 8.0) was added so as to stop the reaction. The amount of liberated 4-methyl-7-aminocoumarin was determined with a fluorospectrometer at an excitation wavelength of 360 nm and a fluorescent emission wave length of 450 nm. Using the value found without addition of the test drug as control and the value found without addition of the enzyme as blank, IC50 was determined in the same manner as above.

The target in a further experiment is T3, papain (Carica papaya, UniProt P00784).
T3 sequence (P00784 134-345): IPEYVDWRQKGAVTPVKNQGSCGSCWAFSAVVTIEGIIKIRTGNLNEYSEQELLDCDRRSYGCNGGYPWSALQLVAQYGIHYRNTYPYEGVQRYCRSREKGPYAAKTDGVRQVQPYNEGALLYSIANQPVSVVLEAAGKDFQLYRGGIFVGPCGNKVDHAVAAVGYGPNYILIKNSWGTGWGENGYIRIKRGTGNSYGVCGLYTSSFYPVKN
In words: Assay of papain-inhibitory activity (casein substrate). The following applies: 60 minutes at 30° C., pH 8.0. Type of experiment: biochemical. On the procedure: (§1) The activity of papain which is a cysteine protease and of trypsin (Sigma) which is a serine protease was assayed in accordance with the method described in the literature [Anal. Biochem., 208, 387-392, 1993]. Thus, to a solution containing 0.5 mg/ml casein, 50 mM Tris-HCl (pH 8.0), 20 mM dithiothreitol, and 0.2 mM EDTA was added 2.5 μl of dimethyl sulfoxide containing a varying concentration of the test drug as well as 0.03 unit of papain or trypsin to initiate the reaction. The final liquid volume was adjusted to 250 μl. After 60 minutes of reaction at 30° C., 100 μl of the reaction mixture was transferred to another vessel and following addition of 50 μl of purified water and 100 μl of 50% Coumassie brilliant blue solution, the mixture was allowed to stand at room temperature for 15 minutes. The absorbance of the mixture was then measured at 595 nm. Using the value found similarly by adding 2.5 μl of dimethyl sulfoxide not containing the test drug as control and the value found without addition of the enzyme as blank, IC50 was determined in the same manner as above.

A further experiment addresses T4, trypsin (UniProt P00760).
T4 sequence (P00760 1-246): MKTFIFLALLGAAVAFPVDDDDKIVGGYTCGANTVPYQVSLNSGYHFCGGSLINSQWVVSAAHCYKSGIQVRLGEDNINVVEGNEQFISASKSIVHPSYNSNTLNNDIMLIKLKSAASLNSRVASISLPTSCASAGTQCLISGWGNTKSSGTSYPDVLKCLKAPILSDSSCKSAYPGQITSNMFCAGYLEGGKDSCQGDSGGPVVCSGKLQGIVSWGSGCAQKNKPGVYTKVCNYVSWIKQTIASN
In words: Assay of trypsin-inhibitory activity (casein substrate). Type of experiment: biochemical. The following applies: read-out: Trypsin 50% Inhibitory concentration (IC50); 60 minutes at 30° C., pH 8.0. As to the method:
as §1

The test system of experiment [1] is angiogenesis in cornea of guinea pig. In words: Angiogenesis in cornea of guinea pig by transplantation of bFGF-containing pellet. Type of experiment: in vivo. The following applies: 9 days posttransplantation; for Observation of cornea with a slit lamp: appearance of newly formed blood vessels compared to the control group: test pellet (27 mer calpastatin peptide 0.03 and 0.1 μmole, leupeptin 0.1 μmole) together with bFGF (500 ng) pellet; for Wet weight of cornea compared to the control group / Amount of albumin in cornea compared to the control group: test pellet together with bFGF pellet; for Amount of albumin in cornea compared to the control group: SDS-PAGE image analysis. On the procedure: (1) Method for Preparing Pellets for Transplantation
A solution (5 μl) of 8% ethylene vinyl acetate copolymer (EVA) in dichloromethane was dropped on a plate made of Tefron, air-dried, and 0.0167 w/v % bFGF (3 μl) was dropped thereon and air-dried. After drying, the obtained product was rounded into a small rod to give a bFGF (500 ng)-containing pellet.
Using a test solution instead of 0.0167 w/v % bFGF, a test solution-containing pellet was prepared in the same manner as above. The test solution-containing pellets were prepared to contain 27 mer calpastatin peptide (0.03 μmole and 0.1 μmule/pellet, Sigma) and leupeptin (0.1 μmole/pellet, PEPTIDE […], INC.).
As a control, a pellet made of EVA alone was prepared and used as a vehicle pellet.
(2) Transplantation of Pellet into Cornea of Guinea Pig
The procedure followed the method of M. Kusaka et al. [Biochem. Biophys. Res. Comm., vol. 174, pp. 1070-1076 (1991)]. That is, male guinea pigs weighing 300-400 g were anesthetized with a 1:1 mixture of Ketalar 50 (ketamin hydrochloride, Sankyo Company, Limited) and Celactal (xylazine hydrochloride, Bayer, Ltd.). A pocket was formed in the intercellular layer of corneal stroma layer of both eyes from corneal limbus to the center of cornea, using a 0.5 mm width ophthalmic spatula. A test solution-containing pellet was inserted into the pocked thus formed, and a bFGF-containing pellet was inserted in adjacency thereto. For prevention of infection, ofloxacin eye ointment [Tarivid eye ointment (ofloxacin 0.3%, manufactured by Santen Pharmaceutical Co., Ltd.) was instilled once immediately after insertion of the pellets. Thereafter, 0.3% lomefloxacin (lomeflon ophthalmic otologic solution, manufactured by Senju Pharmaceutical Co., Ltd.) was instilled once a day for 5 days.
(3) Evaluation of the Effects of Cysteine Protease Inhibitor
The blood vessel newly formed in cornea which is an avascular tissue had high permeability, and the wet weight and plasma content were expected to elevate due to incurrent of plasma components as a result of high permeability. At 9 days posttransplantation of pellet, guinea pigs were euthanized and cornea was collected. The obtained cornea was weighed (wet weight). Then, it was homogenized, and subjected to centrifugation. The obtained water soluble protein was separated by SDS polyacrylamide gel electrophoresis. After electrophoresis, the gel was stained with Coomassie Brilliant Blue. By image analysis (NIH Image 1.31), albumin which is one of the major proteins in plasma was quantitatively assayed. As the standard substance, guinea pig serum albumin was used.

T2 sequence (P07711 114-333, species assumed): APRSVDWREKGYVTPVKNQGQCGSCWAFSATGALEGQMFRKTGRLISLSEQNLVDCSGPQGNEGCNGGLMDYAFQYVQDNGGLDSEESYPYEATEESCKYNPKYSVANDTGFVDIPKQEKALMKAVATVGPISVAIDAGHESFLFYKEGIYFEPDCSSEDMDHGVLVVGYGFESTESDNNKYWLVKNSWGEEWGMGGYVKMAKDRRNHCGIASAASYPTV

For the compound `CCC(C)[C@H](NC(=O)[C@H]1O[C@@H]1C(=O)O)C(=O)N1CCN(c2ccccc2Cl)CC1` (stereo partly drawn) [Compound 24, (2s,3s)-3-[[[[(1s)-1-[[4-(2-chlorophenyl)-1-piperazinyl]carbonyl]-2-methyl]butyl]amino]carbonyl]oxiranecarboxylic acid], the IC50 was 840 nM on μ-calpain, 9 nM against cathepsin L, 47 nM against papain and above 3 mM on trypsin.
For the compound “DPMSSTYIEELGKREVTIPPKYRELLA [27 mer calpastatin peptide, from Sigma]”, in experiment [1], the “Observation of cornea with a slit lamp: appearance of newly formed blood vessels compared to the control group” value is given as “the degree of appearance was mild”, the “Wet weight of cornea compared to the control group” value is on record as “suppressed increase in the wet weight of cornea” and the “Amount of albumin in cornea compared to the control group” value is given as “suppressed increase in the amount of albumin in cornea”.
Consider `CC(C)C[C@H](NC(=O)[C@H]1O[C@@H]1C(=O)O)C(=O)N1CCN(c2ccccc2)CC1` [Compound 14, (2s,3s)-3-[[[[(1s)-1-[(4-phenyl-1-piperazinyl)carbonyl]-3-methyl]butyl]amino]carbonyl]oxiranecarboxylic acid], for which the IC50 at μ-calpain worked out at 780 nM.
For the compound `NC(=O)CC[C@H](NC(=O)[C@H]1O[C@@H]1C(=O)O)C(=O)N1CCN(c2ccccc2Cl)CC1` [Compound 30, (2s,3s)-3-[[[[(1s)-1-[[4-(2-chlorophenyl)-1-piperazinyl]carbonyl]-3-carbamoyl]propyl]amino]carbonyl]oxiranecarboxylic acid], the IC50 at μ-calpain came to 6000 nM.
Same read-out and setting: in the case of `CCC[C@H](NS(=O)(=O)c1ccc(F)cc1)C(=O)N[C@H](C=O)CC(C)C` [Compound 41, N-(4-fluorophenylsulfonyl)-L-norvalyl-L-leucinal] it was 130 nM.
Turning to `CC(=O)N[C@@H](CC(C)C)C(=O)N[C@@H](CC(C)C)C(=O)N[C@H](C=O)CCCNC(=N)N` [leupeptin], in experiment [1], the “Observation of cornea with a slit lamp: appearance of newly formed blood vessels compared to the control group” value is on record as “the degree of appearance was mild”, the “Wet weight of cornea compared to the control group” value is reported as “suppressed increase in the wet weight of cornea” and the “Amount of albumin in cornea compared to the control group” value is “suppressed increase in the amount of albumin in cornea”.
Regarding `CC(C)C[C@@H](C=O)NC(=O)[C@@H](NS(=O)(=O)c1ccc(Cl)cc1)C(C)C` [Compound 36, N-(4-chlorophenylsulfonyl)-L-valyl-L-leucinal], the IC50 on μ-calpain is 31 nM.
As to `CC(C)C[C@H](NC(=O)[C@H]1O[C@@H]1C(=O)O)C(=O)N1CCN(S(=O)(=O)N(C)C)CC1` [Compound 15, (2s,3s)-3-[[[[(1s)-1-[(4-dimethylsulfamoyl-1-piperazinyl)carbonyl]-3-methyl]butyl]amino]carbonyl]oxiranecarboxylic acid], at μ-calpain, the IC50 worked out at 1100 nM.
With `COc1ccc(N2CCN(C(=O)[C@H](CC(C)C)NC(=O)[C@H]3O[C@@H]3C(=O)O)CC2)cc1` [Compound 20, (2s,3s)-3-[[[[(1s)-1-[[4-(4-methoxyphenyl)-1-piperazinyl]carbonyl]-3-methyl]butyl]amino]carbonyl]oxiranecarboxylic acid], the IC50 at μ-calpain (read-out: Calpain 50% inhibitory concentration (IC50)) came out at 1200 nM.
Turning to `CC(C)C[C@@H](C=O)NC(=O)[C@@H](NS(=O)(=O)c1ccc2ccccc2c1)C(C)(C)C` [Compound 38, N-(2-naphthalenesulfonyl)-L-tert-leucyl-L-leucinal], the IC50 on μ-calpain turned out to be 6100 nM.
On to `CC(C)[C@H](NS(=O)(=O)c1ccc(F)cc1)C(=O)N[C@H](C=O)Cc1ccccc1` [Compound 43, N-(4-fluorophenylsulfonyl)-L-valyl-L-phenylalaninal], for which the IC50 on μ-calpain was 27 nM.
